In article PMC11942360, “Intratracheal Delivery of a Phospholamban Decoy Peptide Attenuates Cardiac Damage Following Myocardial Infarction” (International Journal of Molecular Sciences, 2025):
One block for each substance: values may come before it.

What was measured:
[1] = tested on: C57/Bl6 mice, myocardial infarction; experiment: Myocardial infarction (LAD ligation) model: histology and heart morphology; type: in vivo; details: 200 nmoles IT 3 h prior to MI, vs PBS-injected
Protocol: (§1) Figure 2 Delivery of dNP2-SE via IT injection exerts cardio-protective effects upon MI. (A) Experimental scheme. A total of 200 nmol dNP2-SE or PBS was delivered via IT injection to adult (9-week-old) C57/Bl6 mice. MI was induced by LAD ligation 3 h post-injection. Hearts were harvested and analyzed 24 h post-MI. (B) Hearts were sectioned and stained with hematoxylin and eosin (H&E) or Picro Sirius Red. Representative images are shown. The LV chamber area was traced (shown in blue lines) and quantitated. The thickness of the LV free wall was also measured (shown in straight black lines). (C,D) LV chamber area and LV free wall thickness are presented as a graph. n = 6~7 per group; one-way ANOVA; *** p < 0.001. Bar represents the mean ±SEM. […] Bar represents the mean ±SEM. (F) TUNEL staining of the heart sections was performed using the DeadEnd Fluorometric TUNEL System. Apoptotic DNA fragmentation was labeled with fluorescein-12-dUTP (green). Nuclei were stained with Hoechst 33342 (blue). Representative images are shown. […] Bar represents the mean ± SEM.
(§2) The left side of the chest was shaved, and an intubation tube was inserted into the trachea. An incision was made in the 4th intercostal space, and the muscles were separated with scissors. The pericardium was gently removed. MI was induced by ligation of the left anterior descending (LAD) artery using a 7–0 black silk suture. The lower region of the artery turned pale immediately after ligation. The chest was sutured with 4–0 black silk. The same surgical procedure, without LAD ligation, was performed for the sham operation.
Harvested heart tissues were fixed in 4% PFA for 24 h at 4 °C and then washed with tap water. After discarding the tap water, the tissues were sequentially incubated in 70%, 80%, 95%, and 100% ethanol for 1 h each to dehydrate. Following the ethanol incubations, the tissues were incubated in xylene for 1 h and 20 min and then embedded in paraffin at 60 °C for 4 h. Paraffin-embedded tissues were sliced into 8 µm sections. After rehydration, the sections were used for histology as follows:
H&E staining: The sections were incubated in hematoxylin (26041-06, Electron Microscopy Science, Hatfield, PA, USA) for 30 s to stain the nuclei, followed by a 10 min wash in running tap water to remove excess stain. Subsequently, the sections were incubated in eosin (EOYA-05-OT-1L, Biognost, Zagreb, Croatia) for 2 min to stain the cytoplasm.
Picro Sirius staining: The sections were incubated for 60 min in Picro Sirius Red solution (ab150681, Abcam, Waltham, MA, USA), rinsed twice with 0.5% acetic acid, and then rinsed with absolute alcohol. H&E and Picro Sirius-stained slides were observed using a slide scanner (Aperio CS2, Leica, Germany).

[2] = tested on: C57/Bl6 mice, myocardial infarction; experiment: Myocardial infarction model: TUNEL staining of heart sections; type: in vivo; details: 200 nmoles IT 3 h prior to MI; 24 h post-MI; LV free wall; n = 3~4 per group
Protocol: as §1, with “± SEM. […]” for “± SEM.”
The TUNEL assay was performed following the manufacturer’s instructions (DeadEnd Fluorometric TUNEL System, Promega, […], USA). […] Apoptotic signals and nuclear signals in the LV region were counted using cellSens TruAI 4.3 software (OLYMPUS, Tokyo, Japan), and the percentage of TUNEL-positive cells was calculated.

[3] = tested on: C57/Bl6 mice, myocardial infarction; experiment: Myocardial infarction model: hemodynamic analysis (PV loops); type: in vivo; details: 200 nmoles IT 3 h prior to MI, 24 h post-MI, n = 5~8 per group
Protocol: Figure 3 Delivery of dNP2-SE via IT injection preserves cardiac contractility upon MI. Hemodynamic analyses were performed 24 h post-MI to measure cardiac contractility. (A) Representative PV loops are shown. (B) End-systolic pressure–volume relationship (ESPVR), dp/dt max (mmHg), and dp/dt min (mmHg) are shown. […] Bar represents the mean ± SEM.
as §2
An incision was made in the abdominal wall to expose the abdominal cavity. The diaphragm was carefully separated from the ribs to avoid bleeding during the incision procedures. The xiphoid process was lifted, and the diaphragm was pulled down and fixed to secure the site. The pericardium was then removed. A small puncture was made in the left ventricle using an insulin syringe, and a probe was inserted through the puncture (AD instruments, Dunedin, New Zealand). Data analysis was performed using LabChart 8 (AD instruments, New Zealand).

[4] = tested on: SERCA2a, α-SMA, phospho-PLN (S16), PP1cα, PPP1R3A in heart; experiment: Myocardial infarction model: western blotting of heart lysates; type: in vivo, mice; details: 200 nmoles IT 3 h prior to MI, 24 h post-MI, western blot, n = 3 per group
Text: Figure 4 Delivery of dNP2-SE via IT injection prevents molecular abnormalities upon MI. (A) Protein lysates obtained from the hearts shown in Figure 2 and Figure 3 were subjected to western blotting. Antibodies against SERCA2a, α-SMA, phospho-PLN, PLN, PP1cα, and PPP1R3A were used. β-actin was used as a loading control. (B) The ratio of phosphorylated PLN over PLN is shown. […] Bar represents the mean ± SEM.

[5] = molecular target: T1, PP1cα-PPP1R3A-PLN complex (Mus musculus, UniProt P62137); experiment: Immunoprecipitation of heart lysates with anti-PP1cα antibodies; details: heart lysates of MI mice given 200 nmoles IT, IP with anti-PP1cα
T1 construct: from tissue; host or cells: mouse heart (C57BL/6, after MI, PBS- or dNP2-SE-injected)
Text: (§3) Figure 5 Inhibitory mechanism of dNP2-SE on the PP1cα-PPP1R3A-PLN complex. (A) Protein lysates shown in Figure 4 were subjected to immunoprecipitation with anti-PP1cα antibodies and blotted with antibodies against PLN, PPP1R3A, and PP1cα (upper three rows). Inputs were also blotted with antibodies against PLN, PPP1R3A, and PP1cα (lower three rows). (B) Biotin-dNP2-SE was delivered to the normal heart via IT injection. Heart lysates were obtained, precipitated with streptavidin, and blotted with PP1cα, PPP1R3A, and PLN. Inputs were also blotted.
Immunoprecipitation was performed by adding 1 µg of the corresponding antibody to 1 mg of lysate. The mixture was gently inverted on a rotator overnight at 4 °C. After the primary antibody incubation, 30 µL of protein A-conjugated magnetic beads (88845, Thermo Fisher, Waltham, MA, USA) were added and incubated for 1 h to bind with the antibody. To isolate the protein–antibody–bead complex from the lysate, the mixture was centrifuged at 3000 rpm for 3 min at 4 °C and washed 4 times with lysis buffer. As a control for the precipitates, 2% of the initial protein amount used for pulldown was prepared as input. The collected complexes and inputs were used for western blots.

PP1cα = molecular target: T2, PP1cα (Mus musculus, UniProt P62137); experiment: Streptavidin precipitation of biotin-dNP2-SE from heart lysates, blot for PP1cα; type: binding, mice; details: biotin-dNP2-SE delivered to the normal heart via IT injection
T2 construct: from tissue; host or cells: normal mouse heart after IT injection of biotin-dNP2-SE
Text: as §3

PPP1R3A = molecular target: T3, PPP1R3A (Mus musculus, UniProt Q99MR9); experiment: Streptavidin precipitation of biotin-dNP2-SE from heart lysates, blot for PPP1R3A; type: binding, mice; details: biotin-dNP2-SE delivered to the normal heart via IT injection
T3 construct: from tissue; host or cells: normal mouse heart after IT injection of biotin-dNP2-SE
T3 sequence (Q99MR9 1-1089): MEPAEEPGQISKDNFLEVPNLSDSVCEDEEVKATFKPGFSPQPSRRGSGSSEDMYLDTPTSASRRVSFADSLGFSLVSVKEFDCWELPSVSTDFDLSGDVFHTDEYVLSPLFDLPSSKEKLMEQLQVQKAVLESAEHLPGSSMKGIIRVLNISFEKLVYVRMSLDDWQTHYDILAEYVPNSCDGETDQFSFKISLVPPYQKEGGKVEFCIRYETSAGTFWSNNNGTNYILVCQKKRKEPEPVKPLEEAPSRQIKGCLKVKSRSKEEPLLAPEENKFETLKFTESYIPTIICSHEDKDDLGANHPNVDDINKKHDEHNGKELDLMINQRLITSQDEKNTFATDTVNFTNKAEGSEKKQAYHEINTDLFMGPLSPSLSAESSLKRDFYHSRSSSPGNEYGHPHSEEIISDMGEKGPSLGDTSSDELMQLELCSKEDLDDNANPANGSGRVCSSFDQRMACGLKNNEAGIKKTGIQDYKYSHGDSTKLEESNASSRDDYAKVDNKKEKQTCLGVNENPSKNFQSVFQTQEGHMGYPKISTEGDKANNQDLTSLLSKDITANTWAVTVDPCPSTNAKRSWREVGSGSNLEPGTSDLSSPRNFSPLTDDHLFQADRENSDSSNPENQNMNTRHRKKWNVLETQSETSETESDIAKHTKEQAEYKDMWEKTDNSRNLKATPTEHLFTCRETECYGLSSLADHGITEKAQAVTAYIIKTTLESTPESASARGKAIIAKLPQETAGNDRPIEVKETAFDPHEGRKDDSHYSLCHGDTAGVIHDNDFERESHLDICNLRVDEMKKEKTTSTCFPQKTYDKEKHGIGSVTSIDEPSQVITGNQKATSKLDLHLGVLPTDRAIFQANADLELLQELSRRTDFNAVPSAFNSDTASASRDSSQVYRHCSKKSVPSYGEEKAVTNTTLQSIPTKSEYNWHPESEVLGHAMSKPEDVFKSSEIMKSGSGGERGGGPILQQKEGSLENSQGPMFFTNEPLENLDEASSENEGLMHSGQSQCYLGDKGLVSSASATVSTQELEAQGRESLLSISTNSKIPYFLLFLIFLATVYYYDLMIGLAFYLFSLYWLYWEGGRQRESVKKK
Text: as §3

[6] = cited from earlier work
Text: In this study, we aimed to evaluate the feasibility of delivering a naked peptide fused with a cell-penetrating peptide (CPP) to the heart via the lung-to-heart route without encapsulation in NPs. CPPs, which are the peptide sequences enriched in arginine and lysine residues, facilitate the translocation of hydrophilic macromolecules such as proteins and peptides across cellular membranes. The specific CPP used in this study is a tandem repeat of NP2 (dNP2), a sequence derived from the human novel LZAP-binding protein (NLBP). Compared to TAT, the most widely used CPP originated fro ...

[7] = 24 h post-MI, n = 6~7 per group

T1 sequence (P62137 whole entry, one chain of several): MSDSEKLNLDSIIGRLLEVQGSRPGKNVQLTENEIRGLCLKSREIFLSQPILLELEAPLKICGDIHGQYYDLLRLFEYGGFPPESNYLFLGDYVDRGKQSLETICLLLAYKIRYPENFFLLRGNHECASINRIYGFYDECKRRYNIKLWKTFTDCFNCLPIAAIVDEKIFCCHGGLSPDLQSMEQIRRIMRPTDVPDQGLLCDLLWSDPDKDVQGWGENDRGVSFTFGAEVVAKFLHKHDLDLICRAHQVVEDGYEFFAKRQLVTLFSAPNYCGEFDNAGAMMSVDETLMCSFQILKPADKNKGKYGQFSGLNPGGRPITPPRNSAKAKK
T2 sequence (P62137 whole entry): as the sequence (P62137 whole entry, one chain of several) above

Interactions between PP1cα and PPP1R3A (co-immunoprecipitation) [5]: not altered | Physical interactions between PP1cα and PLN (co-immunoprecipitation) ([5]; vs PBS-injected): completely abolished | Binding to PP1cα (streptavidin precipitation, western blot) (PP1cα): strongly binds | Interaction with PPP1R3A (streptavidin precipitation, western blot) (PPP1R3A): only weakly interacts
Substance: Ac-KIKKVKKKGRKGSKIKKVKKKGRKGRAETIEMPQ-NH2 [dNP2-SE]
Heart weight-to-body weight ratio under MI [1, 7]: normalized | LV chamber area under MI [1, 7]: remained normal | LV free wall thickness under MI [1, 7]: significantly preserved | Collagen deposition (Picro Sirius staining) under MI ([1]; hearts 24 h post-MI): markedly reduced | Increase in apoptotic cell populations (TUNEL-positive cells) under MI [2]: effectively prevented | PV loop pattern under MI [3]: indistinguishable from that of sham-operated hearts | Ejection fraction (EF) under MI ([3]; vs PBS-injected): significantly ameliorated | End-systolic pressure–volume ratio (ESPVR) under MI ([3]; vs PBS-injected): significantly normalized | LV end-diastolic volume (Vmax) under MI ([3]; vs PBS-injected): significantly ameliorated | LV end-systolic volume (Vmin) under MI ([3]; vs PBS-injected): significantly ameliorated | dP/dt max under MI ([3]; vs PBS-injected): significantly normalized | dP/dt min under MI ([3]; vs PBS-injected): significantly normalized | Phosphorylation of PLN at S16 (p-PLN) in heart under MI ([4]; p-PLN/PLN): fully preserved | Expression level of PP1cα in heart [4]: remained unchanged | MI-induced increase in PPP1R3A expression in heart [4]: prevented | MI-induced increase of α-smooth muscle actin (α-SMA) in heart [4]: attenuated | MI-induced reduction of SERCA2a expression in heart [4]: attenuated

Substance: KIKKVKKKGRKGSKIKKVKKKGRKG [dNP2]
Toxicity compared to TAT [6]: significantly lower toxicity than TAT
